Results from US8247211B2, “Glycopeptide antibiotics” (American Cyanamid Company, priority 2001, dated 2012).

Key:
[1] = tested on: Staphylococcus aureus-SMITH (GC 4543); assay: Acute lethal infection in mice (ED50); assay type: in vivo; details: female CD-1 mice, intraperitoneal challenge, intravenous dose 30 min. after infection, 7 day survival ratios
Summary of the method: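 Female CD-1 mice challenged intraperitoneally with a bacterial dose lethal to untreated controls within 24-48 h. Compound given intravenously in saline or 5% dextrose 30 min post-infection, five mice per dose; ED50 from 7-day survival pooled over 3 tests.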

Enterococcus sp. = assay: In vitro antibacterial evaluation: minimum inhibitory concentration (MIC), broth dilution method; assay type: cell-based
Summary of the method: (§1)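 Values are minimum inhibitory concentrations, meaning the smallest antibiotic concentration that stops growth of the organism. They come from broth dilution in Muller-Hinton II […] per NCCLS guidance (M7-A2), using 5×10^5 CFU/mL and concentrations from 64 to 0.06 μg/mL.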

Streptococcus sp. = assay: as above; assay type: cell-based
Summary of the method: as §1

Escherichia coli = assay: as above; assay type: cell-based
Summary of the method: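 First, organisms are seeded at 5×10^5 CFU/mL into Muller-Hinton II […]. Next, antibiotic is applied across 64-0.06 μg/mL by broth dilution (NCCLS M7-A2). Finally, the lowest inhibitory concentration is recorded as MIC.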

Staphylococcus sp. = assay: as above; assay type: cell-based; details: 18 hours at 35° C.
Summary of the method: as §1

[2] = broth dilution, inoculum 5×10^5 CFU/mL, 18 hours at 35° C.

Cc1ccc(Oc2ccc(C3OCC4OC(OC5C(CO)OC(Oc6ccc(CC7NC(=O)C(C(C)c8ccccc8)NC(=O)CNC(=O)C(CO)NC(=O)C(C(O)C8CNC(=N)N8C8OC(CO)C(O)C(O)C8O)NC(=O)C(C(O)C8CNC(=N)N8)NC7=O)cc6)C(O)C5O)C(O)C(O)C4O3)cc2)cc1 (stereo not drawn) [Example 174, Cyclo[glycyl-β-methylphenylalanyl-O-[4-O-[4,6-O-[4-(4-methylphenoxy)benzylidene]hexopyranosyl]hexopyranosyl]tyrosyl-3-(2-iminoimidazolidin-4-yl)seryl-3-(3-hexopyranosyl-2-iminoimidazolidin-4-yl)serylseryl]]
0.08 mg/kg: median effective dose (ED50), Staphylococcus aureus-SMITH (GC 4543) [1]
1 µg/mL: MIC Enterococcus faecalis (GC 4552) (Enterococcus sp.; [2]) | MIC Enterococcus faecalis (GC 4553) (Enterococcus sp.; [2]) | MIC Enterococcus faecalis (GC 4554) (Enterococcus sp.; [2]) | MIC Enterococcus faecium (GC 2243) (Enterococcus sp.; [2]) | MIC Enterococcus faecium (GC 4556) (Enterococcus sp.; [2]) | MIC Enterococcus faecium (GC 2243) (Enterococcus sp.; strain GC 2243) | MIC Enterococcus faecalis (GC 4552) (Enterococcus sp.; strain GC 4552) | MIC Enterococcus faecalis (GC 4553) (Enterococcus sp.; strain GC 4553) | MIC Enterococcus faecalis (GC 4554) (Enterococcus sp.; strain GC 4554) | MIC Enterococcus faecium (GC 4556) (Enterococcus sp.; strain GC 4556) | MIC Coagulase Negative Staphylococcus (GC 4549) (Staphylococcus sp.; broth dilution, 5×10^5 CFU/mL) | MIC Coagulase Negative Staphylococcus (GC 4551) (Staphylococcus sp.; broth dilution, 5×10^5 CFU/mL) | MIC Staphylococcus aureus (GC 1131) (Staphylococcus sp.; broth dilution, 5×10^5 CFU/mL) | MIC Staphylococcus aureus (GC 4544) (Staphylococcus sp.; broth dilution, 5×10^5 CFU/mL) | MIC Staphylococcus aureus (GC 4545) (Staphylococcus sp.; broth dilution, 5×10^5 CFU/mL) | MIC Staphylococcus aureus-SMITH (GC 4543) (Staphylococcus sp.; broth dilution, 5×10^5 CFU/mL) | MIC Staphylococcus aureus (GC 1131) (Staphylococcus sp.; strain GC 1131, broth dilution) | MIC Staphylococcus aureus (GC 4544) (Staphylococcus sp.; strain GC 4544, broth dilution) | MIC Staphylococcus aureus (GC 4545) (Staphylococcus sp.; strain GC 4545, broth dilution)
4 µg/mL: MIC Escherichi coli (GC 4560) (Escherichia coli; strain GC 4560)
2 µg/mL: MIC Enterococcus avium (GC 4558) (Enterococcus sp.; [2]) | MIC Enterococcus faecalis (ATCC 29212) (Enterococcus sp.; [2]) | MIC Enterococcus faecalis (GC 2242) (Enterococcus sp.; [2]) | MIC Enterococcus faecalis (GC 2691) (Enterococcus sp.; [2]) | MIC Enterococcus faecalis (GC 3059) (Enterococcus sp.; [2]) | MIC Enterococcus faecalis (GC 6189) (Enterococcus sp.; [2]) | MIC Enterococcus faecium (GC 4557) (Enterococcus sp.; [2]) | MIC Enterococcus faecalis (ATCC 29212) (Enterococcus sp.; strain ATCC 29212) | MIC Enterococcus faecalis (GC 2242) (Enterococcus sp.; strain GC 2242) | MIC Enterococcus faecalis (GC 2691) (Enterococcus sp.; strain GC 2691) | MIC Enterococcus faecalis (GC 3059) (Enterococcus sp.; strain GC 3059) | MIC Enterococcus faecium (GC 4557) (Enterococcus sp.; strain GC 4557) | MIC Enterococcus avium (GC 4558) (Enterococcus sp.; strain GC 4558) | MIC Enterococcus faecalis (GC 6189) (Enterococcus sp.; strain GC 6189) | MIC Coagulase Negative Staphylococcus (GC 4547) (Staphylococcus sp.; broth dilution, 5×10^5 CFU/mL) | MIC Staphylococcus aureus (ATCC 29213) (Staphylococcus sp.; broth dilution, 5×10^5 CFU/mL) | MIC Staphylococcus aureus (GC 3051) (Staphylococcus sp.; broth dilution, 5×10^5 CFU/mL) | MIC Staphylococcus aureus (GC 3053) (Staphylococcus sp.; broth dilution, 5×10^5 CFU/mL) | MIC Staphylococcus aureus (GC 4541) (Staphylococcus sp.; broth dilution, 5×10^5 CFU/mL) | MIC Staphylococcus aureus (GC 4542) (Staphylococcus sp.; broth dilution, 5×10^5 CFU/mL) | MIC Staphylococcus haemolyticus (GC 4546) (Staphylococcus sp.; broth dilution, 5×10^5 CFU/mL) | MIC Staphylococcus aureus (ATCC 29213) (Staphylococcus sp.; strain ATCC 29213, broth dilution) | MIC Staphylococcus aureus (GC 3051) (Staphylococcus sp.; strain GC 3051, broth dilution) | MIC Staphylococcus aureus (GC 3053) (Staphylococcus sp.; strain GC 3053, broth dilution) | MIC Staphylococcus aureus (GC 4541) (Staphylococcus sp.; strain GC 4541, broth dilution) | MIC Staphylococcus aureus (GC 4542) (Staphylococcus sp.; strain GC 4542, broth dilution)
0.5 µg/mL: MIC Coagulase Negative Staphylococcus (GC 4548) (Staphylococcus sp.; broth dilution, 5×10^5 CFU/mL) | MIC Coagulase Negative Staphylococcus (GC 6257) (Staphylococcus sp.; broth dilution, 5×10^5 CFU/mL)
>64 µg/mL: MIC Escherichia coli (ATCC 25922) (Escherichia coli; strain ATCC 25922) | MIC Escherichia coli (GC 4559) (Escherichia coli; strain GC 4559)
<0.06 µg/mL: MIC Streptococcus agalactiae (GC 4564) (Streptococcus sp.; [2]) | MIC Streptococcus pneumoniae (ATCC 6301) (Streptococcus sp.; [2]) | MIC Streptococcus pneumoniae (GC 1894) (Streptococcus sp.; [2]) | MIC Streptococcus pneumoniae (GC 4565) (Streptococcus sp.; [2]) | MIC Streptococcus pyogenes (GC 4563) (Streptococcus sp.; [2]) | MIC Streptococcus pneumoniae (ATCC 6301) (Streptococcus sp.; strain ATCC 6301) | MIC Streptococcus pneumoniae (GC 1894) (Streptococcus sp.; strain GC 1894) | MIC Streptococcus pyogenes (GC 4563) (Streptococcus sp.; strain GC 4563) | MIC Streptococcus agalactiae (GC 4564) (Streptococcus sp.; strain GC 4564) | MIC Streptococcus pneumoniae (GC 4565) (Streptococcus sp.; strain GC 4565)

CC(c1ccccc1)C1NC(=O)CNC(=O)C(CO)NC(=O)C(C(O)C2CNC(=N)N2C2OC(CO)C(O)C(O)C2O)NC(=O)C(C(O)C2CNC(=N)N2)NC(=O)C(Cc2ccc(OC3OC(CO)C(OC4OC(COCc5ccc(OCc6ccccc6)cc5)C(O)C(O)C4O)C(O)C3O)cc2)NC1=O (stereo not drawn) [Example 231, Cyclo[glycyl-β-methylphenylalanyl-O-[4-O-[6-O-[4-(phenylmethoxy)benzyl]hexopyranosyl]-hexopyranosyl)tyrosyl-3-(2-iminoimidazolidin-4-yl)seryl-3-(3-hexopyranosyl-2-iminoimidazolidin-4-yl)serylseryl]]
1 to 4 µg/mL: MIC Staphylococcus aureus (ATCC 29213) (Staphylococcus sp.; Staphylococcus aureus (ATCC 29213)) | MIC Staphylococcus aureus (GC 4541) (Staphylococcus sp.; Staphylococcus aureus (GC 4541)) | MIC Staphylococcus aureus (GC 4545) (Staphylococcus sp.; Staphylococcus aureus (GC 4545)) | MIC Staphylococcus haemolyticus (GC 4546) (Staphylococcus sp.; Staphylococcus haemolyticus (GC 4546))
<0.06 µg/mL: MIC Streptococcus agalactiae (GC 4564) (Streptococcus sp.; Streptococcus agalactiae (GC 4564), 18 hours at 35° C.) | MIC Streptococcus pneumoniae (ATCC 6301) (Streptococcus sp.; Streptococcus pneumoniae (ATCC 6301), 18 hours at 35° C.) | MIC Streptococcus pneumoniae (GC 1894) (Streptococcus sp.; Streptococcus pneumoniae (GC 1894), 18 hours at 35° C.) | MIC Streptococcus pneumoniae (GC 4565) (Streptococcus sp.; Streptococcus pneumoniae (GC 4565), 18 hours at 35° C.) | MIC Streptococcus pyogenes (GC 4563) (Streptococcus sp.; Streptococcus pyogenes (GC 4563), 18 hours at 35° C.) | MIC Streptococcus agalactiae (GC 4564) (Streptococcus sp.; [2]) | MIC Streptococcus pneumoniae (ATCC 6301) (Streptococcus sp.; [2]) | MIC Streptococcus pneumoniae (GC 1894) (Streptococcus sp.; [2]) | MIC Streptococcus pneumoniae (GC 4565) (Streptococcus sp.; [2]) | MIC Streptococcus pyogenes (GC 4563) (Streptococcus sp.; [2])
1 to 2 µg/mL: MIC Enterococcus faecium (GC 4557) (Enterococcus sp.; Enterococcus faecium (GC 4557), 18 hours at 35° C.) | MIC Enterococcus faecium (GC 4557) (Enterococcus sp.; [2]) | MIC Coagulase Negative Staphylococcus (GC 4547) (Staphylococcus sp.; Coagulase Negative Staphylococcus (GC 4547)) | MIC Staphylococcus aureus (GC 3051) (Staphylococcus sp.; Staphylococcus aureus (GC 3051)) | MIC Staphylococcus aureus (GC 3053) (Staphylococcus sp.; Staphylococcus aureus (GC 3053))
0.5 to 1 µg/mL: MIC Coagulase Negative Staphylococcus (GC 4548) (Staphylococcus sp.; Coagulase Negative Staphylococcus (GC 4548)) | MIC Coagulase Negative Staphylococcus (GC 6257) (Staphylococcus sp.; Coagulase Negative Staphylococcus (GC 6257))
0.25 mg/kg: median effective dose (ED50), Staphylococcus aureus-SMITH (GC 4543) [1]
2 µg/mL: MIC Staphylococcus aureus-SMITH (GC 4543) (Staphylococcus sp.; Staphylococcus aureus-SMITH (GC 4543))
1 µg/mL: MIC Coagulase Negative Staphylococcus (GC 4551) (Staphylococcus sp.; Coagulase Negative Staphylococcus (GC 4551))
0.5 to 2 µg/mL: MIC Escherichia coli (GC 4560) (Escherichia coli; Escherichia coli (GC 4560), 18 hours at 35° C.)
2 to 4 µg/mL: MIC Enterococcus avium (GC 4558) (Enterococcus sp.; Enterococcus avium (GC 4558), 18 hours at 35° C.) | MIC Enterococcus faecalis (GC 2691) (Enterococcus sp.; Enterococcus faecalis (GC 2691), 18 hours at 35° C.) | MIC Enterococcus faecalis (GC 3059) (Enterococcus sp.; Enterococcus faecalis (GC 3059), 18 hours at 35° C.) | MIC Enterococcus faecalis (GC 6189) (Enterococcus sp.; Enterococcus faecalis (GC 6189), 18 hours at 35° C.) | MIC Enterococcus avium (GC 4558) (Enterococcus sp.; [2]) | MIC Enterococcus faecalis (GC 2691) (Enterococcus sp.; [2]) | MIC Enterococcus faecalis (GC 3059) (Enterococcus sp.; [2]) | MIC Enterococcus faecalis (GC 6189) (Enterococcus sp.; [2]) | MIC Staphylococcus aureus (GC 1131) (Staphylococcus sp.; Staphylococcus aureus (GC 1131)) | MIC Staphylococcus aureus (GC 4542) (Staphylococcus sp.; Staphylococcus aureus (GC 4542)) | MIC Staphylococcus aureus (GC 4544) (Staphylococcus sp.; Staphylococcus aureus (GC 4544))
4 µg/mL: MIC Enterococcus faecalis (ATCC 29212) (Enterococcus sp.; Enterococcus faecalis (ATCC 29212), 18 hours at 35° C.) | MIC Enterococcus faecalis (GC 2242) (Enterococcus sp.; Enterococcus faecalis (GC 2242), 18 hours at 35° C.) | MIC Enterococcus faecalis (GC 4552) (Enterococcus sp.; Enterococcus faecalis (GC 4552), 18 hours at 35° C.) | MIC Enterococcus faecalis (GC 4553) (Enterococcus sp.; Enterococcus faecalis (GC 4553), 18 hours at 35° C.) | MIC Enterococcus faecalis (GC 4554) (Enterococcus sp.; Enterococcus faecalis (GC 4554), 18 hours at 35° C.) | MIC Enterococcus faecium (GC 2243) (Enterococcus sp.; Enterococcus faecium (GC 2243), 18 hours at 35° C.) | MIC Enterococcus faecium (GC 4556) (Enterococcus sp.; Enterococcus faecium (GC 4556), 18 hours at 35° C.) | MIC Enterococcus faecalis (ATCC 29212) (Enterococcus sp.; [2]) | MIC Enterococcus faecalis (GC 2242) (Enterococcus sp.; [2]) | MIC Enterococcus faecalis (GC 4552) (Enterococcus sp.; [2]) | MIC Enterococcus faecalis (GC 4553) (Enterococcus sp.; [2]) | MIC Enterococcus faecalis (GC 4554) (Enterococcus sp.; [2]) | MIC Enterococcus faecium (GC 2243) (Enterococcus sp.; [2]) | MIC Enterococcus faecium (GC 4556) (Enterococcus sp.; [2])
